Drawing on patent publication US8912227B1, “Bicyclic pyrrole derivatives useful as agonists of GPR120” (Janssen Pharmaceutica NV, priority 2014, dated 2014), this text covers EC50 for 17 compounds.

Each structure is given as a SMILES string.

Format in all cases: cell-based
For test [1], the target named is T1, Human GPR120 short form (Homo sapiens, UniProt Q5NUL3).
T1 construct: expressed in transfected cells
T1 sequence (Q5NUL3 1-361): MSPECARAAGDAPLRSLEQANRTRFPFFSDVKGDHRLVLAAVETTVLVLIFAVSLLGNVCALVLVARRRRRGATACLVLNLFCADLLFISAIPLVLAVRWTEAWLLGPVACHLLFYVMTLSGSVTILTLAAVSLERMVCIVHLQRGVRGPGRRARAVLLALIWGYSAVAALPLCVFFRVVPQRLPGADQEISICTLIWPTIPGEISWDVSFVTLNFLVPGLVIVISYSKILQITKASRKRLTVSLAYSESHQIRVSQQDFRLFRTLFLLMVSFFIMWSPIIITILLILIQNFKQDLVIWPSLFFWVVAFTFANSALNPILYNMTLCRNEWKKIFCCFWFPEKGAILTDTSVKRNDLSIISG
In words: Human GPR120 calcium flux assay, Procedure Calcium A. The note with it: HEK-293 cells expressing human GPR120 short form, 2500 cells/well, FLIPR. The method in brief:
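HEK293 cells stably expressing the human GPR120 short splice variant (NM_001195755.1) were seeded at 2500 cells/well, serum-starved 1 h and loaded with Fluo-4 NW plus probenecid. Compounds (100–0.012 μM solutions, 0.2% final DMSO) were added, and FLIPR calcium flux was read for 300 s. EC50 came from a variable-slope fit (Hill <2) of Fmax−Fmin.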
(Calcium assays in cells follow changes in intracellular calcium, usually with a dye or a luminescent sensor.)

The target of test [2] is T1, Human GPR120 short form. In words: Human GPR120 calcium flux assay, Procedure Calcium B. To be noted: HEK-293 cells expressing human GPR120 short form, 4200 cells/well, FLIPR.
Test [3] addresses T2, long form of human GPR120 (Homo sapiens, UniProt Q5NUL3).
T2 construct: host or cells: PathHunter CHO-K1 GPR120 β-Arrestin Cell Line
In words: Human GPR120 DiscoveRx PathHunter β-Arrestin assay, Procedure β-arrestin A. The note with it: PathHunter CHO-K1 GPR120 β-Arrestin cell line, 3000 cells per well. The text has this: The binding of an agonist (medium/long chain fatty acids or small molecule agonists) to the G-protein-coupled receptor GPR120 activates phospholipase C, leading to release of intracellular Ca^+2 through the generation of inositol 1,4,5-trisphosphate (InsP3 or IP3). GPR120 activation can also trigger intracellular signaling via recruitment of β-Arrestin. In the present method, agonist-induced activation of the human GPR120 receptor is monitored through the use of PathHunter CHO-K1 GPR120 β-Arrestin Cell Line engineered by DiscoveRx, as detailed below. The cell lines are designed to co-express both the ProLink/Enzyme Donor (PK)-tagged GPCR and the Enzyme […] (EA)-tagged Beta-Arrestin fusion proteins. Upon GPR120 receptor stimulation/activation, the EA-tagged β-Arrestin portion is translocated to the tagged receptor, where the two enzyme fragments are brought within close proximity. Under these conditions, these fragments can interact and form an active Beta-gal enzyme complex through Enzyme Fragment Complementation (EFC). This active Beta-gal complex can enzymatically hydrolyse the substrate to produce a detectable light signal; therefore, activation as a function of agonist concentration can be expressed as an EC50 value to determine relative compound activities. This in vitro assay therefore serves to assess compound agonist activity of the GPR120.
In Procedure β-arrestin A, the cell used were PathHunter CHO-K1 GPR120 β-Arrestin Cell Line, expressing the long form of human GPR120 (Genbank accession number NM_181745), with 3000 cells per well.
The selected CHO-K1 GPR120 β-Arrestin cells were cultured in Ham's F12 media supplemented with 10% fetal bovine serum (FBS), 1% Glutamine, 1×p/s, 800 μg/ml G418 and 300 μg/ml Hygromycin B (for selection). Cell stocks were maintained and grown in a sub-confluent state using standard cell culture procedures. The day before the experiment, the cells were harvested with non-enzymatic cell dissociation buffer and re-suspended in complete growth media at the desired concentration. A Corning 384-plate was then seeded with the proper number of cells in a volume of 25 μL, per well. The seeded plates were incubated overnight at 37° C.
On the day of the experiment, the Assay Buffer containing (a) HBSS with Ca^++ and Mg^++, (b) 20 mM HEPES, and (c) 0.1% BSA stabilizer (pH 7.4) was prepared. The growth medium was gently removed from the cell plates and 20 μL of Assay Buffer added to each well. The plate was then incubated at 37° C. for 60 mins. Test compounds were serially diluted in Assay Buffer to desired concentrations (more particularly, to one or more of the following μM concentrations: 25 μM, 12.5 μM, 6.25 μM, 3.125 μM, 1.562 μM, 0.781 μM, 0.391 μM, 0.195 μM, 0.098 μM, 0.049 μM, 0.024 μM, 0.012 μM). Five μl of compound dilution was then added to each well and the plate incubated at 37° C. for 90 mins. The detection reagents were prepared according to the manufacture's instruction. Twelve μL of the detection reagents were added to each well and the plate incubated at room temperature for 60 mins.
The plates were read on an EnVision instrument, using Protocol name: Luminescence, Plate type: 384 Costar, Measurement height: 3 mm, Measurement time: 1 s, Aperture: 384 Plate aperture. The % activity relative to the positive control was calculated using the following equation:
The % Activity values were plotted versus the concentration of test compound and fitted to a sigmoidal dose-response curve with a Hill slope=1 (fixed value) using nonlinear regression with GraphPad Prism 5.0 to calculate the EC50 values. The Fitting Equation was: Y=Bottom+(Top−Bottom)/(1+10^((LogEC50−X)*HillSlope)), where X is the log of the concentration and Y is the response.

T2 sequence (Q5NUL3 1-377 isoform Q5NUL3-1): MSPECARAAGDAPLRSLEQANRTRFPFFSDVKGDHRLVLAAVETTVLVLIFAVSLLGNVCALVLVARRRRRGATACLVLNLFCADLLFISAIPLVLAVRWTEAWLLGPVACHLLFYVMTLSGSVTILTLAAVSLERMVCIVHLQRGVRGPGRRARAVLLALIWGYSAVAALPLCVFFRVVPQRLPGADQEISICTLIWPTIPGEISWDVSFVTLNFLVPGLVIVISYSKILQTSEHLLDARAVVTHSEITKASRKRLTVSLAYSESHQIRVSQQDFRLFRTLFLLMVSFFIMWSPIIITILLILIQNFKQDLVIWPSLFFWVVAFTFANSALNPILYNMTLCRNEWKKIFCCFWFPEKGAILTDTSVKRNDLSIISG
T2 sequence (P32121 whole entry partner): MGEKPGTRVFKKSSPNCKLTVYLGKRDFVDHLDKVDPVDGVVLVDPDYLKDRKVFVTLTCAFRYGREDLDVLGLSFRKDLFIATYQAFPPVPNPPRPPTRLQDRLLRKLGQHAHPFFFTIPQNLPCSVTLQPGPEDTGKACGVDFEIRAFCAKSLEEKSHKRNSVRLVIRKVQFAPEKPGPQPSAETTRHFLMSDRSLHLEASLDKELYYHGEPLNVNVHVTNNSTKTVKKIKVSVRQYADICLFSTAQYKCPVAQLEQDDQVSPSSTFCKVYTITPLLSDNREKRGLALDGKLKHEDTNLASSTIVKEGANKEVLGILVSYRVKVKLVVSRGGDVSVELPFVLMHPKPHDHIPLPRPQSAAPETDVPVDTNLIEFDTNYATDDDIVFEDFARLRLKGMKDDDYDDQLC

The EC50 is the concentration that produces a half-maximal response. Take `COc1ccc(-n2ccc(C(F)(F)F)c2COc2ccc(CCCO)c(C)c2C)cc1` [Compound 25, 3-(4-{[1-(4-Methoxyphenyl)-3-(trifluoromethyl)-1H-pyrrol-2-yl]methoxy}-2,3-dimethylphenyl)propan-1-ol]: the EC50 at Human GPR120 short form [1] turned out to be 0.608 µM; on Human GPR120 short form [2], 0.413 µM; in test [3], 0.203 µM.
As for `COc1ccc(-n2ccc(C(F)(F)F)c2COc2ccc(CCC(=O)O)c(F)c2F)cc1` [Compound 26, 3-(2,3-Difluoro-4-{[1-(4-methoxyphenyl)-3-(trifluoromethyl)-1H-pyrrol-2-yl]methoxy}phenyl)propanoic acid], the EC50 worked out at 0.916 µM at Human GPR120 short form [1], 0.23 µM at Human GPR120 short form [2] and 0.249 µM in test [3].
As for `COc1ccc(-n2ccc(C(F)(F)F)c2COc2ccc(CCCO)c(F)c2F)cc1` [Compound 27, 3-(2,3-Difluoro-4-{[1-(4-methoxyphenyl)-3-(trifluoromethyl)-1H-pyrrol-2-yl]methoxy}phenyl)propan-1-ol], the EC50 on Human GPR120 short form [1] turned out to be 0.218 µM; at Human GPR120 short form [2], 0.054 µM; in test [3] it was 0.046 µM.
Turning to `COc1ccc(-n2ccc(C(F)(F)F)c2COc2c(F)cc(CCC(=O)O)cc2F)cc1` [Compound 28, 3-(3,5-Difluoro-4-{[1-(4-methoxyphenyl)-3-(trifluoromethyl)-1H-pyrrol-2-yl]methoxy}phenyl)propanoic acid], the half-maximal effective concentration (EC50) at Human GPR120 short form [1] came out at 0.641 µM; at Human GPR120 short form [2] it was 0.108 µM; in test [3], 0.221 µM.
Taken in the same sequence, the figures for `OCCCc1cc(F)c(OCc2c(C(F)(F)F)ccn2-c2ccc(Br)cc2)c(F)c1` [Compound 30, 3-(4-[[1-(4-bromophenyl)-3-(trifluoromethyl)-1H-pyrrol-2-yl]methoxy]-3,5-difluorophenyl)propan-1-ol] were 0.427 µM, 0.246 µM and 0.025 µM.
With `COc1ccc(-n2ccc(C(F)(F)F)c2COc2c(F)cc(CCCO)cc2F)cc1` [Compound 31, 3-(3,5-Difluoro-4-{[1-(4-methoxyphenyl)-3-(trifluoromethyl)-1H-pyrrol-2-yl]methoxy}phenyl)propan-1-ol], the EC50 on Human GPR120 short form [1] was found to be 0.222 µM; on Human GPR120 short form [2], 0.067 µM; in test [3] it was 0.061 µM.
Taken in the same sequence, the figures for `CCc1ccc(-n2ccc(C(F)(F)F)c2COc2c(F)cc(CCC(=O)O)cc2F)cc1` [Compound 32, 3-(4-[[1-(4-ethylphenyl)-3-(trifluoromethyl)-1H-pyrrol-2-yl]methoxy]-3,5-difluorophenyl)propanoic acid] were 0.402 µM, 0.117 µM and 0.357 µM.
As for `CCc1ccc(-n2ccc(C(F)(F)F)c2COc2c(F)cc(CCCO)cc2F)cc1` [Compound 33, 3-(4-[[1-(4-ethylphenyl)-3-(trifluoromethyl)-1H-pyrrol-2-yl]methoxy]-3,5-difluoro-phenyl)propan-1-ol], the figures for the EC50 (at Human GPR120 short form [1]; at Human GPR120 short form [2]; in test [3]) were 0.434 µM, 0.082 µM and 0.048 µM, respectively.
With `OCCCc1cc(F)c(OCc2c(C(F)(F)F)ccn2-c2ccccc2)c(F)c1` [Compound 35, 3-(3,5-difluoro-4-[[1-phenyl-3-(trifluoromethyl)-1H-pyrrol-2-yl]methoxy]phenyl)propan-1-ol], the concentration giving a half-maximal response (EC50) turned out to be 0.507 µM at Human GPR120 short form [1], 0.063 µM at Human GPR120 short form [2] and 0.201 µM in test [3].
For `CCc1ccc(-n2ccc(C(F)(F)F)c2COc2ccc(CCC(=O)O)c(C)c2C)cc1` [Compound 36, 3-(4-[[1-(4-ethylphenyl)-3-(trifluoromethyl)-1H-pyrrol-2-yl]methoxy]-2,3-dimethylphenyl)propanoic acid], the concentration for a half-maximal effect (EC50) amounted to 0.444 µM at Human GPR120 short form [1], 0.145 µM on Human GPR120 short form [2] and 0.12 µM in test [3].
On to `Cc1ccc(-n2ccc(C(F)(F)F)c2COc2c(F)cc(CCCO)cc2F)cc1` [Compound 37, 3-(3,5-difluoro-4-[[1-(4-methylphenyl)-3-(trifluoromethyl)-1H-pyrrol-2-yl]methoxy]phenyl)propan-1-ol], for which the EC50 at Human GPR120 short form [1] amounted to 0.119 µM; at Human GPR120 short form [2], 0.028 µM; in test [3] it was 0.016 µM.
With `O=C(O)CCc1cc(F)c(OCc2c(C(F)(F)F)ccn2-c2ccccc2)c(F)c1` [Compound 38, 3-(3,5-difluoro-4-((1-phenyl-3-(trifluoromethyl)-1H-pyrrol-2-yl)methoxy)phenyl)propanoic acid], the concentration giving a half-maximal response (EC50) on Human GPR120 short form [1] is 0.45 µM; at Human GPR120 short form [2], 0.101 µM; in test [3], 0.678 µM.
With `Cc1ccc(-n2ccc(C(F)(F)F)c2COc2ccc(CCC(=O)O)c(F)c2F)cc1` [Compound 42, 3-(2,3-difluoro-4-[[1-(4-methylphenyl)-3-(trifluoromethyl)-1H-pyrrol-2-yl]methoxy]phenyl)propanoic acid], the EC50 was 0.81 µM on Human GPR120 short form [1], 0.084 µM at Human GPR120 short form [2] and 0.293 µM in test [3].
On to `Cc1ccc(-n2ccc(C(F)(F)F)c2COc2ccc(CCC(=O)O)c(C)c2C)cc1` [Compound 43, 3-(2,3-dimethyl-4-[[1-(4-methylphenyl)-3-(trifluoromethyl)-1H-pyrrol-2-yl]methoxy]phenyl)propanoic acid], for which the EC50 at Human GPR120 short form [1] amounted to 0.558 µM; at Human GPR120 short form [2], 0.063 µM; in test [3], 0.359 µM.
As for `Cc1ccc(-n2ccc(C(F)(F)F)c2COc2ccc(CCCO)c(F)c2F)cc1` [Compound 44, 3-(2,3-difluoro-4-[[1-(4-methylphenyl)-3-(trifluoromethyl)-1H-pyrrol-2-yl]methoxy]phenyl)propan-1-ol], the concentration for a half-maximal effect (EC50) was determined as 0.432 µM on Human GPR120 short form [1], 0.05 µM at Human GPR120 short form [2] and 0.098 µM in test [3].
Regarding `OCCCc1cc(F)c(OCc2c(C(F)(F)F)ccn2-c2ccc(Cl)cc2)c(F)c1` [Compound 46, 3-(4-{[1-(4-Chlorophenyl)-3-(trifluoromethyl)-1H-pyrrol-2-yl]methoxy}-3,5-difluorophenyl)propan-1-ol], the half-maximal effective concentration (EC50) stood at 0.621 µM on Human GPR120 short form [1], 0.043 µM at Human GPR120 short form [2] and 0.099 µM in test [3].
As for `Cc1ccc(-n2ccc(C(F)(F)F)c2COc2ccc(CCCO)c(F)c2F)cn1` [Compound 47, 3-(2,3-difluoro-4-[[1-(6-methylpyridin-3-yl)-3-(trifluoromethyl)-1H-pyrrol-2-yl]methoxy]phenyl)propan-1-ol trifluoroacetic acid], the EC50 on Human GPR120 short form [1] was found to be 0.375 µM; at Human GPR120 short form [2], 0.066 µM; in test [3] it was 0.241 µM.
